{"source": "patent EP0247507A2", "about": "“Composition for transdermal therapeutical systems of high-ceiling diuretics, and process for producing it” (priority 1986, dated 1987)", "tested_on": "Ratte", "assay": "Salidiuretic effect in the rat (urine volume, Na, K, Cl excretion) after percutaneous (TTS) or oral administration", "format": "in vivo", "source_text": "Die folgenden Beispiele sollen die Erfindung erläutern. Die Zusammensetzungen wurden durch Mischen der Wirkstoffe mit der Grundlage in einem Rührwerk mit eingebautem Homogenisator erhalten. Als transdermale therapeutische Systeme wurden aus dem deutschen Gebrauchsmuster 84 07 036 bekannte Pflasterpackungen verwendet.", "key": {"[1]": {"conditions": "Furosemid 5 mg/rat p.o. (suspended in 2 % aqueous starch solution), collection period 1 - 5 h, n = 4"}, "[2]": {"conditions": "Furosemid 5 mg/rat p.o. (suspended in 2 % aqueous starch solution), collection period 1 - 24 h, n = 4"}, "[3]": {"conditions": "Furosemid 5 mg/rat p.o. (suspended in 2 % aqueous starch solution), collection period 6 - 24 h, n = 4"}, "[4]": {"conditions": "Piretanid 20 mg/rat p.o. (suspended in 2 % aqueous starch solution), collection period 1 - 5 h, n = 2"}, "[5]": {"conditions": "Piretanid 20 mg/rat p.o. (suspended in 2 % aqueous starch solution), collection period 1 - 24 h, n = 2"}, "[6]": {"conditions": "Piretanid 20 mg/rat p.o. (suspended in 2 % aqueous starch solution), collection period 6 - 24 h, n = 2"}}, "data": [{"compound": "NS(=O)(=O)c1cc(C(=O)O)c(NCc2ccco2)cc1Cl", "note": "[Furosemid, 4-Chlor-N-furfuryl-5-sulfamoylanthranilsäure]", "values": [{"measurement": "Chlorid", "setting": "[1]", "value": "6.10 ± 0.62", "unit": "mmol/kg"}, {"measurement": "Kalium", "setting": "[1]", "value": "1.40 ± 0.16", "unit": "mmol/kg"}, {"measurement": "Natrium", "setting": "[1]", "value": "4.81 ± 0.75", "unit": "mmol/kg"}, {"measurement": "Urin", "setting": "[1]", "value": "47.8 ± 3.5", "unit": "mL/kg"}, {"measurement": "Chlorid", "setting": "[2]", "value": "6.59 ± 0.61", "unit": "mmol/kg"}, {"measurement": "Kalium", "setting": "[2]", "value": "3.88 ± 0.88", "unit": "mmol/kg"}, {"measurement": "Natrium", "setting": "[2]", "value": "6.03 ± 0.75", "unit": "mmol/kg"}, {"measurement": "Urin", "setting": "[2]", "value": "59.7 ± 6.2", "unit": "mL/kg"}, {"measurement": "Chlorid", "setting": "[3]", "value": "0.49 ± 0.11", "unit": "mmol/kg"}, {"measurement": "Kalium", "setting": "[3]", "value": "2.48 ± 0.79", "unit": "mmol/kg"}, {"measurement": "Natrium", "setting": "[3]", "value": "1.22 ± 0.21", "unit": "mmol/kg"}, {"measurement": "Urin", "setting": "[3]", "value": "11.9 ± 3.6", "unit": "mL/kg"}]}, {"compound": "NS(=O)(=O)c1cc(C(=O)O)cc(N2CCCC2)c1Oc1ccccc1", "note": "[Piretanid, 4-Phenoxy-3-(1-pyrrolidinyl)-5-sulfamoylbenzoesäure]", "values": [{"measurement": "Chlorid", "setting": "[4]", "value": 8.36, "unit": "mmol/kg"}, {"measurement": "Kalium", "setting": "[4]", "value": 1.92, "unit": "mmol/kg"}, {"measurement": "Natrium", "setting": "[4]", "value": 7.07, "unit": "mmol/kg"}, {"measurement": "Urin", "setting": "[4]", "value": 65.0, "unit": "mL/kg"}, {"measurement": "Chlorid", "setting": "[5]", "value": 11.36, "unit": "mmol/kg"}, {"measurement": "Kalium", "setting": "[5]", "value": 11.67, "unit": "mmol/kg"}, {"measurement": "Natrium", "setting": "[5]", "value": 11.78, "unit": "mmol/kg"}, {"measurement": "Urin", "setting": "[5]", "value": 112.1, "unit": "mL/kg"}, {"measurement": "Chlorid", "setting": "[6]", "value": 3.00, "unit": "mmol/kg"}, {"measurement": "Kalium", "setting": "[6]", "value": 9.75, "unit": "mmol/kg"}, {"measurement": "Natrium", "setting": "[6]", "value": 4.71, "unit": "mmol/kg"}, {"measurement": "Urin", "setting": "[6]", "value": 47.1, "unit": "mL/kg"}]}]}
